The source made the active and inactive calls.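 How the source made its calls: active means fitted curve climbs past 10% caspase activation, relative to the positive control, at or below the top valid tested dose; inactive means the rest, including activity in the opposite direction.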

The values that follow come from PubChem BioAssay AID504345 (Broad Institute, 2011).

System in one assay: not listed separately
The experiment in a line: caspase activation in A1-dependent BIM-primed MEFs, dose response, Bcl2-A1 inhibitor project, cell-based, MEF A1-2A-BIM, luminescence, dry powder, set 2 (AID 504345). As to conditions: MEF A1-2A-BIM cells, caspase 3/7 luminescence; at 35 µM (top of the series).
On to `O=C(Oc1cccc(/C=N/Nc2nc(Nc3ccccc3)nc(N3CCOCC3)n2)c1)c1ccco1`, for which the caspase activation was 6.44% (inactive).

Consider `O=c1oc2ccccc2c(Cl)c1[N+](=O)[O-]`, for which the caspase activation was -8.87% (inactive).

For `CCOCCCNc1c([N+](=O)[O-])c(=O)n(C)c2ccccc12`, the caspase activation is 2.29% (inactive).

On to `Cc1ccc(Sc2c([N+](=O)[O-])c(=O)oc3ccccc23)cc1`, for which the caspase activation is -5.88% (inactive).

Consider `O=c1oc2ccccc2c(Nc2cc(Cl)cc(Cl)c2)c1[N+](=O)[O-]`, for which the caspase activation was -2.92% (inactive).

Regarding `CCSc1c([N+](=O)[O-])c(=O)oc2ccccc12`, the caspase activation is -6.49% (inactive).

Turning to `Cc1ccc(Sc2cc(=O)n(C)c3ccccc23)cc1`, the caspase activation is -11.4% (inactive).

As to `O=c1oc2ccccc2c(Sc2ccccc2)c1[N+](=O)[O-]`, the caspase activation was -9.2% (inactive).

As for `O=c1oc2ccccc2c(N2CCCCC2)c1[N+](=O)[O-]`, the caspase activation was -1.93% (inactive).

Regarding `Cn1c(=O)c([N+](=O)[O-])c(Nc2ccc(Cl)cc2)c2ccccc21`, the caspase activation is -1.07% (inactive).

On to `Cc1ccc(Nc2c([N+](=O)[O-])c(=O)oc3ccccc23)cc1`, for which the caspase activation was 1.97% (inactive).

As to `CCOC(=O)N1CCN(c2c([N+](=O)[O-])c(=O)n(C)c3ccccc23)CC1`, the caspase activation is -2.42% (inactive).

Turning to `CN1C(=O)C(C)(C)N(Cc2ccccc2)c2ccccc21`, the caspase activation is 0.119% (inactive).

Turning to `O=[N+]([O-])c1cnc2ccccc2c1Sc1ccccc1`, the caspase activation is -2.86% (inactive).

Take `Cc1ccc(Nc2c([N+](=O)[O-])c(=O)n(C)c3ccccc23)cc1`: the caspase activation was -2.07% (inactive).

Take `C/C1=C/C(=O)O[C@@H]2C[C@@H](CC[C@H](C)/C=C\CC1)O[C@@](O)(C1CSC(=O)N1)C2` (stereo partly specified): the caspase activation was 9.53% (inactive).

Consider `Cn1c(=O)c([N+](=O)[O-])c(Oc2ccccc2)c2ccccc21`, for which the caspase activation is 4.18% (inactive).

In the next assay the test system is MEF A1-2A-BIM cells, caspase 3/7 luminescence. The description is as above.
Conditions: not given
Turning to `Cn1c(=O)c([N+](=O)[O-])c(-n2cnc3ccccc32)c2ccccc21`, the AC10 is 9.42 µM.

In the case of `Cn1c(=O)c([N+](=O)[O-])c(Cl)c2ccccc21`, the AC10 is 0.632 µM.

Regarding `Cc1ccc(Sc2c([N+](=O)[O-])cnc3ccccc23)cc1`, the AC10 is 8.65 µM.

Consider `Cc1ccc(Sc2c([N+](=O)[O-])c(=O)n(C)c3ccccc23)cc1`, for which the AC10 was 4.06 µM.
